In PubChem BioAssay (NCI):
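Tested at 5 concentrations; 48 h exposure; 96-well plates; endpoints linearly interpolated, else capped at highest concentration. TGI is the concentration that stops growth completely.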

Tests used:
Assay in all cases: DTP human tumour cell line panel, 48 h
SF-268 CNS = test system: SF-268 CNS
HT29 colon = test system: HT29 colon
CAKI-1 renal = test system: CAKI-1 renal
EKVX NSCLC = test system: EKVX NSCLC
M14 melanoma = test system: M14 melanoma
MALME-3M melanoma = test system: MALME-3M melanoma
UACC-62 melanoma = test system: UACC-62 melanoma
UO-31 renal = test system: UO-31 renal
A549 NSCLC = test system: A549 NSCLC
OVCAR-5 ovarian = test system: OVCAR-5 ovarian
UACC-257 melanoma = test system: UACC-257 melanoma
NCI/ADR-RES ovarian = test system: NCI/ADR-RES ovarian
SK-OV-3 ovarian = test system: SK-OV-3 ovarian
SK-MEL-2 melanoma = test system: SK-MEL-2 melanoma
MDA-MB-231 breast = test system: MDA-MB-231 breast
BT-549 breast = test system: BT-549 breast
A498 renal = test system: A498 renal
TK-10 renal = test system: TK-10 renal
RXF 393 renal = test system: RXF 393 renal
K-562 leukemia = test system: K-562 leukemia
SNB-75 CNS = test system: SNB-75 CNS
MDA-MB-435 = test system: MDA-MB-435
SK-MEL-28 melanoma = test system: SK-MEL-28 melanoma
NCI-H23 lung = test system: NCI-H23 lung
MCF7 breast = test system: MCF7 breast
SF-295 CNS = test system: SF-295 CNS
MOLT-4 leukemia = test system: MOLT-4 leukemia
NCI-H460 lung = test system: NCI-H460 lung
U251 CNS = test system: U251 CNS
MDA-N = test system: MDA-N
HCT-15 colon = test system: HCT-15 colon
KM12 colon = test system: KM12 colon
NCI-H522 lung = test system: NCI-H522 lung
ACHN renal = test system: ACHN renal
PC-3 prostate = test system: PC-3 prostate
SNB-19 CNS = test system: SNB-19 CNS
HCT-116 colon = test system: HCT-116 colon
HCC-2998 colon = test system: HCC-2998 colon
HOP-92 NSCLC = test system: HOP-92 NSCLC
RPMI-8226 leukemia = test system: RPMI-8226 leukemia
DU-145 prostate = test system: DU-145 prostate
SW-620 colon = test system: SW-620 colon
SK-MEL-5 melanoma = test system: SK-MEL-5 melanoma
OVCAR-4 ovarian = test system: OVCAR-4 ovarian
NCI-H226 lung = test system: NCI-H226 lung
786-0 renal = test system: 786-0 renal
SN12C renal = test system: SN12C renal
OVCAR-3 ovarian = test system: OVCAR-3 ovarian
COLO 205 colon = test system: COLO 205 colon

Clc1ccc(OCc2nnc(CCCCCCCCc3nnc(COc4ccc(Cl)cc4)o3)o2)cc1
TGI (SF-268 CNS): > 100 µM
TGI (HT29 colon): > 100 µM
TGI (CAKI-1 renal): > 100 µM
TGI (EKVX NSCLC): > 100 µM
TGI (M14 melanoma): > 100 µM
TGI (MALME-3M melanoma): > 100 µM
TGI (UACC-62 melanoma): > 100 µM
TGI (UO-31 renal): > 100 µM
TGI (A549 NSCLC): > 100 µM
TGI (OVCAR-5 ovarian): > 100 µM
TGI (UACC-257 melanoma): > 100 µM
TGI (NCI/ADR-RES ovarian): > 100 µM
TGI (SK-OV-3 ovarian): > 100 µM
TGI (SK-MEL-2 melanoma): > 100 µM
TGI (MDA-MB-231 breast): > 100 µM
TGI (BT-549 breast): > 100 µM
TGI (A498 renal): > 100 µM
TGI (TK-10 renal): > 100 µM
TGI (RXF 393 renal): > 100 µM
TGI (K-562 leukemia): > 100 µM
TGI (SNB-75 CNS): > 100 µM
TGI (MDA-MB-435): > 100 µM
TGI (SK-MEL-28 melanoma): > 100 µM
TGI (NCI-H23 lung): > 100 µM
TGI (MCF7 breast): > 100 µM
TGI (SF-295 CNS): > 100 µM
TGI (MOLT-4 leukemia): > 100 µM
TGI (NCI-H460 lung): > 100 µM
TGI (U251 CNS): > 100 µM
TGI (MDA-N): > 100 µM
TGI (HCT-15 colon): > 100 µM
TGI (KM12 colon): > 100 µM
TGI (NCI-H522 lung): > 100 µM
TGI (ACHN renal): > 100 µM
TGI (PC-3 prostate): > 100 µM
TGI (SNB-19 CNS): > 100 µM
TGI (HCT-116 colon): 28.2 µM
TGI (HCC-2998 colon): > 100 µM
TGI (HOP-92 NSCLC): > 100 µM
TGI (RPMI-8226 leukemia): > 100 µM
TGI (DU-145 prostate): > 100 µM
TGI (SW-620 colon): > 100 µM
TGI (SK-MEL-5 melanoma): > 100 µM
TGI (OVCAR-4 ovarian): > 100 µM
TGI (NCI-H226 lung): > 100 µM
TGI (786-0 renal): > 100 µM
TGI (SN12C renal): > 100 µM
TGI (OVCAR-3 ovarian): > 100 µM
TGI (COLO 205 colon): > 100 µM
